{"source": "patent US20130225508A1", "about": "“PEPTIDE CAPABLE OF BINDING TO IMMUNOGLOBULIN” (priority 2010, published 2013)", "key": {"[1]": {"system": "monoclonal antibody cocktail-induced arthritis", "test": "Mice monoclonal antibody cocktail-induced arthritis model", "format": "in vivo, Mice (BALB/c Cr Slc)", "experimental": "1-1 Mice (BALB/c Cr Slc (SPF)) were used to examine arthritis suppressing effects of peptides of the present invention on monoclonal antibody cocktail-induced arthritis. Mice were fed normal chow and allowed to acclimate for 6 days before used in experiments.\nArthritis was caused by intravenous administration of 2 mg/animal of an arthritis-inducing monoclonal antibody cocktail and three days later, intraperitoneal administration of 50 μg/animal of lipopolysaccharide (LPS). Peptides R1 and R9 each were intraperitoneally administered at a dose of 10 mg/kg once a day from the day following the LPS administration (day 4) to day 14. Peptide SP4 and the variant of peptide SP4 composed of the corresponding D-amino acids (except for glycine) each were intraperitoneally administered at a dose of 10 or 100 mg/kg once a day from the day following the LPS administration (day 4) to day 14. […] A control group was given physiological saline at 10 mL/kg once a day from day 4.\nTo forty 7-week-old mice, the arthritis-inducing monoclonal antibody cocktail was intravenously administered at a dose of 2 mg/animal on day 0, and LPS was intraperitoneally administered at a dose of 50 μg/animal on day 3.\n[…] As a control, physiological saline was intraperitoneally administered once a day from day 4, and the volume of administration was 10 ml/kg. […] Needles ([…]; Terumo) and syringes (1.0-ml capacity; Terumo) were used for administration.\nObservation of clinical score was performed on even days from day 0 to day 14 as follows. The total score for the extremities was set to a maximum of 12. Visual observation of swelling of the legs was performed.\n0: normal joint 1: slight inflammation and redness 2: serious erythema and swelling over the whole limb and preventing the use of the limb 3: deformation of the limb or joint accompanied by ankylosis, joint stiffness, loss of function\nResults of examinations are expressed by mean value±standard error and were analyzed using EXSAS (Version 7.1.6, Arm Systex Co., Ltd.). Clinical scores were subjected to Wilcoxon's test. Quantitative data, such as body weights and leg volumes, were subjected to Bartlett's test, followed by Dunnett's multiple comparison test if the variance was uniform or by Steel's multiple comparison test if the variance was not uniform. The level of significance was set at 5% on both sides."}, "IL-1β in plasma": {"system": "IL-1β in plasma", "test": "IL-1β in plasma of adjuvant arthritis rats (ELISA)", "format": "in vivo, rat", "details": "day 21 post-adjuvant", "experimental": "(§1) TNF-α and IL-1β in plasma were measured in a double-point method using the TNF-α ELISA kit (Lbis® TNF-α-rat) and the IL-1β ELISA kit (Quantikine® Rat IL-1β/IL-1F2).\n(§2) On day 21 post-adjuvant, the animals were subjected to autopsy, and plasma was prepared to measure IL-1β and TIN-α concentrations in plasma. In all the groups for which measurements were made, the concentration of TNF-α was below the detection limit (8 pg/mL)."}, "TNF-α in plasma": {"system": "TNF-α in plasma", "test": "TNF-α in plasma of adjuvant arthritis rats (ELISA)", "format": "in vivo, rat", "details": "day 21 post-adjuvant", "experimental": "as §1, §2"}, "[2]": {"details": "day 6, 0.15 mg/kg intraperitoneal once a day from day 4"}, "[3]": {"details": "day 14, 0.15 mg/kg intraperitoneal once a day from day 4"}, "[4]": {"details": "0.15 mg/kg oral, pre-administered group"}}}
{"smiles": "CN(Cc1cnc2nc(N)nc(N)c2n1)c1ccc(C(=O)N[C@@H](CCC(=O)O)C(=O)O)cc1", "note": "[Methotrexate]", "values": [{"measurement": "hind-limb volume", "setting": "[1]; day 0, 0.15 mg/kg intraperitoneal group", "result": 0.216, "unit": "cm^3"}, {"measurement": "hind-limb volume", "setting": "[1]; [2]", "result": 0.381, "unit": "cm^3"}, {"measurement": "increasing rate of hind-limb volume (volume on day 0 = 100%)", "setting": "[1]; [2]", "result": 176.2, "unit": "%"}, {"measurement": "hind-limb volume", "setting": "[1]; day 8 (highest value), 0.15 mg/kg intraperitoneal once a day from day 4", "result": 0.441, "unit": "cm^3"}, {"measurement": "increasing rate of hind-limb volume (volume on day 0 = 100%)", "setting": "[1]; day 8 (highest), 0.15 mg/kg intraperitoneal once a day from day 4", "result": 204.2, "unit": "%"}, {"measurement": "clinical score", "setting": "[1]; day 12, 0.15 mg/kg intraperitoneal once a day from day 4", "result": "8.2±0.9"}, {"measurement": "clinical score", "setting": "[1]; [3]", "result": "8.6±0.9"}, {"measurement": "hind-limb volume", "setting": "[1]; [3]", "result": 0.356, "unit": "cm^3"}, {"measurement": "increasing rate of hind-limb volume (volume on day 0 = 100%)", "setting": "[1]; [3]", "result": 165.4, "unit": "%"}, {"measurement": "Concentrations of IL-1β in plasma", "setting": "IL-1β in plasma; 0.15 mg/kg oral from day 10", "result": "22.6 ± 11.3", "unit": "pg/mL"}, {"measurement": "Concentrations of IL-1β in plasma", "setting": "IL-1β in plasma; [4]", "result": "18.4 ± 4.2", "unit": "pg/mL"}, {"measurement": "Concentrations of TNF-α in plasma", "setting": "TNF-α in plasma; 0.15 mg/kg oral from day 10", "result": "N.D (N.D.: below detection limit)"}, {"measurement": "Concentrations of TNF-α in plasma", "setting": "TNF-α in plasma; [4]", "result": "N.D (N.D.: below detection limit)"}]}
